US20250059205A1, “Heterocyclic Compounds and Methods of Use” (AMGEN INC., priority 2021, published 2025)

Columns and labels:
[1] = molecular target: His-tagged KRAS G12D protein (Homo sapiens, UniProt P01116, G12D); test: KRAS G12D TR-FRET Assay; type: binding
[2] = molecular target: GDP-bound KRAS protein (aa 1-169), containing both G12D and C118A amino acid substitutions (Homo sapiens, UniProt P01116, C118A/G12D); test: KRAS G12D Coupled Nucleotide Exchange Assay; type: biochemical; settings: 2 h compound pre-incubation
Description: Following compound pre-incubation, purified SOS protein (aa 564-1049) and GTP (Roche 10106399001) were added to the assay wells and incubated for an additional 30 min. […] The assay plates were then read on a PerkinElmer EnVision Multilabel Reader, using AlphaScreen® technology, and data were analyzed using a 4-parameter logistic model to calculate IC50 values.

[3] = tested on: Phosphorylation of ERK1/2 in A-427 cells; test: Phospho-ERK1/2 MSD Assay (A-427 cells); type: cell-based; settings: Homo sapiens, A-427, 2 h, 2 h treatment, read-out: p-ERK (A427 cells) IC50
Summary of the method: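 ERK1/2 phosphorylation measured by Meso Scale whole-cell lysate assay after A-427 cells were exposed to a titration of compound for 2 h at 37 °C.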

[4] = tested on: Phosphorylation of ERK1/2 in AsPC-1 cells; test: Phospho-ERK1/2 MSD Assay (AsPC-1 cells); type: cell-based; settings: Homo sapiens, ASPC1, 2 h, 2 hours treatment, read-out: p-ERK (AsPC-1 cells) IC50
Summary of the method: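 Read-out: MSD electrochemiluminescent detection of phosphorylated ERK1/2 in whole-cell lysates, fitted to a 4-parameter logistic curve for IC50. Prior to lysis, AsPC-1 cells (25,000 per well) received a 2 h compound dose-response at 37 °C.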

GDP-bound KRAS protein (aa 1-169), containing both G12D and C118A amino acid substitutions, sequence (P01116 1-169 isoform P01116-2 G12D/C118A): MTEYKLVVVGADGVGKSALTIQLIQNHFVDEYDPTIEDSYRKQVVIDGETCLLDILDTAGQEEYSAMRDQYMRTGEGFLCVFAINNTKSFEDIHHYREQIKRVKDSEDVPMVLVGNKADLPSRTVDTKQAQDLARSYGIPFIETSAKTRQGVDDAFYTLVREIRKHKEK
His-tagged KRAS G12D protein, sequence (P01116 1-188 isoform P01116-2 G12D): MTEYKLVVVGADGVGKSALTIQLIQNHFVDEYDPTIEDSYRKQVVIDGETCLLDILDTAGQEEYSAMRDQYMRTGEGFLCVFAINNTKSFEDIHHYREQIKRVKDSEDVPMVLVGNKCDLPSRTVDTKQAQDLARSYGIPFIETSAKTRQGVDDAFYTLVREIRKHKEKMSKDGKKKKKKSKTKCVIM

| Compound | IC50 [1] [nM] | Avg 2 h Coupled Exchange IC50 [2] [nM] | IC50 [3] [nM] | IC50 [4] [nM] |
| --- | --- | --- | --- | --- |
| N#Cc1ccc2[nH]ncc2c1-c1ccc2c(N3C[C@H]4CC[C@@H](C3)N4)nc(OC[C@@]34CCCN3C[C@H](F)C4)nc2c1F [Example 197, 4-(4-((1R,5S)-3,8-Diazabicyclo[3.2.1]octan-3-yl)-8-fluoro-2-(((2R,7aS)-2-fluorotetrahydro-1H-pyrrolizin-7a(5H)-yl)methoxy)quinazolin-7-yl)-1H-indazole-5-carbonitrile] | 108 | 54 | 4030 | > 10000 |
| Oc1cc(-c2cc3nc(OC[C@@]45CCCN4C[C@H](F)C5)nc(N4C[C@@H]5CC[C@H]4CN5)c3cc2F)c2c(F)c(F)ccc2c1 [Example 173, 4-(4-((1S,4S)-2,5-diazabicyclo[2.2.2]octan-2-yl)-6-fluoro-2-(((2R,7aS)-2-fluorotetrahydro-1H-pyrrolizin-7a(5H)-yl)methoxy)quinazolin-7-yl)-5,6-difluoronaphthalen-2-ol] | 2 | 3 | 153 | 366 |
| Cc1ccc2[nH]ncc2c1-c1ccc2c(N3C[C@H]4CC[C@@H](C3)N4)nc(OC[C@@]34CCCN3C[C@H](F)C4)nc2c1F [Example 195, 4-((1R,5S)-3,8-diazabicyclo[3.2.1]octan-3-yl)-8-fluoro-2-(((2R,7aS)-2-fluorotetrahydro-1H-pyrrolizin-7a(5H)-yl)methoxy)-7-(5-methyl-1H-indazol-4-yl)quinazoline] | 40 | 17 | 2380 | 2670 |
